Results reported in PubChem BioAssay AID2060505 (Molecular Pharmacology Branch, DTP, NCI, 2025).

Test system: 633275-114-R-J1-PDC complex spheroids, viability
Experiment: Anticancer human tumor 633275-114-R-J1-PDC patient-derived endometrial adenocarcinoma cell line growth inhibition [GQUAD]
Settings: for IC50: curve of first compound; for viability, T/C: stronger effect = lower value
Method in brief: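 Multi-cell-type spheroids of tumor cells with HUVEC and mesenchymal stem cells, treated with drug combinations. Concentrations descend in half-log steps from near clinical Cmax, or from 10 microM where Cmax is unknown; viability read-out.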

[1] = second compound 0.0316 µM, first compound 0.0316 µM
[2] = second compound 0.0316 µM, first compound 0.1 µM
[3] = second compound 0.0316 µM, first compound 0.316 µM
[4] = second compound 0.0316 µM, first compound 1 µM
[5] = second compound 0.0316 µM, first compound 3.16 µM
[6] = second compound 0.0316 µM, first compound 10 µM
[7] = second compound 0.1 µM, first compound 0.0316 µM
[8] = second compound 0.1 µM, first compound 0.1 µM
[9] = second compound 0.1 µM, first compound 0.316 µM
[10] = second compound 0.1 µM, first compound 1 µM
[11] = second compound 0.1 µM, first compound 3.16 µM
[12] = second compound 0.1 µM, first compound 10 µM
[13] = second compound 0.316 µM, first compound 0.0316 µM
[14] = second compound 0.316 µM, first compound 0.1 µM
[15] = second compound 0.316 µM, first compound 0.316 µM
[16] = second compound 0.316 µM, first compound 1 µM
[17] = second compound 0.316 µM, first compound 3.16 µM
[18] = second compound 0.316 µM, first compound 10 µM
[19] = second compound 1 µM, first compound 0.0316 µM
[20] = second compound 1 µM, first compound 0.1 µM
[21] = second compound 1 µM, first compound 0.316 µM
[22] = second compound 1 µM, first compound 1 µM
[23] = second compound 1 µM, first compound 3.16 µM
[24] = second compound 1 µM, first compound 10 µM
[25] = second compound 3.16 µM, first compound 0.0316 µM
[26] = second compound 3.16 µM, first compound 0.1 µM
[27] = second compound 3.16 µM, first compound 0.316 µM
[28] = second compound 3.16 µM, first compound 1 µM
[29] = second compound 3.16 µM, first compound 3.16 µM
[30] = second compound 3.16 µM, first compound 10 µM
[31] = second compound 10 µM, first compound 0.0316 µM
[32] = second compound 10 µM, first compound 0.1 µM
[33] = second compound 10 µM, first compound 0.316 µM
[34] = second compound 10 µM, first compound 1 µM
[35] = second compound 10 µM, first compound 3.16 µM
[36] = second compound 10 µM, first compound 10 µM
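Further: spheroids exposed to the agents for seven days.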
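Wherever viability, T/C is given: percent of DMSO vehicle control viability which is 100%.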

Compound: COc1cc(C2c3cc4c(cc3C(OC3OC5COC(C)OC5C(O)C3O)C3COC(=O)C23)OCO4)cc(OC)c1O (stereo unspecified) + Cc1cnc(CNC(=O)c2c(=O)c3ccc(N4CCCN(C)CC4)nc3n3c2sc2ccccc23)cn1
- IC50 (second compound 0.0316 µM): 185 nM
- IC50 (second compound 0.1 µM): 86.6 nM
- IC50 (second compound 0.316 µM): < 31.6 nM
- IC50 (second compound 1 µM): < 31.6 nM
- IC50 (second compound 3.16 µM): < 31.6 nM
- IC50 (second compound 10 µM): < 31.6 nM
- viability, T/C [1]: 53.3%
- viability, T/C [2]: 55.2%
- viability, T/C [3]: 47.4%
- viability, T/C [4]: 41.3%
- viability, T/C [5]: 36.6%
- viability, T/C [6]: 27.8%
- viability, T/C [7]: 54.4%
- viability, T/C [8]: 45.2%
- viability, T/C [9]: 50.1%
- viability, T/C [10]: 40%
- viability, T/C [11]: 31.8%
- viability, T/C [12]: 29.4%
- viability, T/C [13]: 43.4%
- viability, T/C [14]: 45.8%
- viability, T/C [15]: 43.6%
- viability, T/C [16]: 41.4%
- viability, T/C [17]: 31.9%
- viability, T/C [18]: 28.1%
- viability, T/C [19]: 40.9%
- viability, T/C [20]: 41%
- viability, T/C [21]: 43.5%
- viability, T/C [22]: 41%
- viability, T/C [23]: 34.1%
- viability, T/C [24]: 28.4%
- viability, T/C [25]: 31.7%
- viability, T/C [26]: 32.9%
- viability, T/C [27]: 35.9%
- viability, T/C [28]: 32.7%
- viability, T/C [29]: 34.2%
- viability, T/C [30]: 25.5%
- viability, T/C [31]: 28.2%
- viability, T/C [32]: 31.4%
- viability, T/C [33]: 28.7%
- viability, T/C [34]: 32.9%
- viability, T/C [35]: 27.2%
- viability, T/C [36]: 20.9%

Compound: COc1cccc2c1C(=O)c1c(O)c3c(c(O)c1C2=O)CC(O)(C(=O)CO)CC3OC1CC(N)C(O)C(C)O1 (stereo unspecified) + Cc1cnc(CNC(=O)c2c(=O)c3ccc(N4CCCN(C)CC4)nc3n3c2sc2ccccc23)cn1
- IC50 (second compound 0.0316 µM): < 31.6 nM
- IC50 (second compound 0.1 µM): < 31.6 nM
- IC50 (second compound 0.316 µM): < 31.6 nM
- IC50 (second compound 1 µM): < 31.6 nM
- IC50 (second compound 3.16 µM): < 31.6 nM
- IC50 (second compound 10 µM): < 31.6 nM
- viability, T/C [1]: 47.7%
- viability, T/C [2]: 44.6%
- viability, T/C [3]: 34.8%
- viability, T/C [4]: 19.2%
- viability, T/C [5]: 1.21%
- viability, T/C [6]: 1.57%
- viability, T/C [7]: 47.7%
- viability, T/C [8]: 43.1%
- viability, T/C [9]: 33.9%
- viability, T/C [10]: 19.1%
- viability, T/C [11]: 0.53%
- viability, T/C [12]: 1.49%
- viability, T/C [13]: 44.1%
- viability, T/C [14]: 39.7%
- viability, T/C [15]: 30.2%
- viability, T/C [16]: 14.3%
- viability, T/C [17]: 0.1%
- viability, T/C [18]: 1.32%
- viability, T/C [19]: 41.4%
- viability, T/C [20]: 35.2%
- viability, T/C [21]: 30.6%
- viability, T/C [22]: 16%
- viability, T/C [23]: 0.1%
- viability, T/C [24]: 0.65%
- viability, T/C [25]: 33.8%
- viability, T/C [26]: 32.2%
- viability, T/C [27]: 25.4%
- viability, T/C [28]: 11.2%
- viability, T/C [29]: 0.14%
- viability, T/C [30]: 0.46%
- viability, T/C [31]: 31%
- viability, T/C [32]: 28.8%
- viability, T/C [33]: 24.5%
- viability, T/C [34]: 4.52%
- viability, T/C [35]: 0.19%
- viability, T/C [36]: 0.43%

Compound: Nc1ccn(C2OC(CO)C(O)C2(F)F)c(=O)n1 (stereo unspecified) + Cc1cnc(CNC(=O)c2c(=O)c3ccc(N4CCCN(C)CC4)nc3n3c2sc2ccccc23)cn1
- IC50 (second compound 0.0316 µM): < 31.6 nM
- IC50 (second compound 0.1 µM): < 31.6 nM
- IC50 (second compound 0.316 µM): < 31.6 nM
- IC50 (second compound 1 µM): < 31.6 nM
- IC50 (second compound 3.16 µM): < 31.6 nM
- IC50 (second compound 10 µM): < 31.6 nM
- viability, T/C [1]: 26.8%
- viability, T/C [2]: 22.2%
- viability, T/C [3]: 21.5%
- viability, T/C [4]: 21.3%
- viability, T/C [5]: 20.6%
- viability, T/C [6]: 19.9%
- viability, T/C [7]: 27.8%
- viability, T/C [8]: 23.1%
- viability, T/C [9]: 22.4%
- viability, T/C [10]: 19.9%
- viability, T/C [11]: 24.2%
- viability, T/C [12]: 19.5%
- viability, T/C [13]: 24.7%
- viability, T/C [14]: 25.8%
- viability, T/C [15]: 22.4%
- viability, T/C [16]: 22.9%
- viability, T/C [17]: 21.9%
- viability, T/C [18]: 19.5%
- viability, T/C [19]: 25.5%
- viability, T/C [20]: 23.8%
- viability, T/C [21]: 22.7%
- viability, T/C [22]: 24%
- viability, T/C [23]: 23%
- viability, T/C [24]: 19.4%
- viability, T/C [25]: 25.7%
- viability, T/C [26]: 23.6%
- viability, T/C [27]: 21.7%
- viability, T/C [28]: 22%
- viability, T/C [29]: 21.5%
- viability, T/C [30]: 20.9%
- viability, T/C [31]: 26.6%
- viability, T/C [32]: 22.3%
- viability, T/C [33]: 22.6%
- viability, T/C [34]: 23.3%
- viability, T/C [35]: 20.7%
- viability, T/C [36]: 17.9%
